Numbers after ± are expanded uncertainties.
Experiment: activity coefficient (dimensionless); of the first substance listed, at infinite dilution; xn = mol fraction of the nth substance listed
Details: 101.33 kPa, Liquid, Chromatography, x1 = 0

CCc1ccccc1 [ethylbenzene] + N#C[N-]C#N.OCCC[n+]1ccccc1
activity coefficient (318.15 K): 16.1 ± 1.1
activity coefficient (328.15 K): 16.4 ± 1.1
activity coefficient (338.15 K): 16.8 ± 1.1
activity coefficient (348.15 K): 17.1 ± 1.2
activity coefficient (358.15 K): 17.4 ± 1.2
activity coefficient (368.15 K): 17.7 ± 1.2

CCCOCCC [dipropyl ether] + N#C[N-]C#N.OCCC[n+]1ccccc1
activity coefficient (318.15 K): 92.3 ± 6.3
activity coefficient (328.15 K): 89.2 ± 6.1
activity coefficient (338.15 K): 86.8 ± 5.9
activity coefficient (348.15 K): 84.2 ± 5.8
activity coefficient (358.15 K): 81.9 ± 5.6
activity coefficient (368.15 K): 79.7 ± 5.5

CC(C)=O [acetone] + N#C[N-]C#N.OCCC[n+]1ccccc1
activity coefficient (318.15 K): 1.87 ± 0.13
activity coefficient (328.15 K): 1.97 ± 0.13
activity coefficient (338.15 K): 2.05 ± 0.14
activity coefficient (348.15 K): 2.14 ± 0.15
activity coefficient (358.15 K): 2.23 ± 0.15
activity coefficient (368.15 K): 2.31 ± 0.16

C1CCCC1 [cyclopentane] + N#C[N-]C#N.OCCC[n+]1ccccc1
activity coefficient (298.15 K): 67 ± 4.6
activity coefficient (308.15 K): 63.5 ± 4.3
activity coefficient (318.15 K): 60.4 ± 4.1
activity coefficient (328.15 K): 57.4 ± 3.9
activity coefficient (338.15 K): 54.9 ± 3.8
activity coefficient (348.15 K): 52.7 ± 3.6
activity coefficient (358.15 K): 50.5 ± 3.5

CCOC(C)(C)C [2-ethoxy-2-methylpropane] + N#C[N-]C#N.OCCC[n+]1ccccc1
activity coefficient (318.15 K): 85.6 ± 5.9
activity coefficient (328.15 K): 83.9 ± 5.8
activity coefficient (338.15 K): 82.4 ± 5.6
activity coefficient (348.15 K): 80.7 ± 5.5
activity coefficient (358.15 K): 79.1 ± 5.4
activity coefficient (368.15 K): 77.9 ± 5.3

C#CCCCCCC [1-octyne] + N#C[N-]C#N.OCCC[n+]1ccccc1
activity coefficient (298.15 K): 67.5 ± 4.6
activity coefficient (308.15 K): 68.5 ± 4.7
activity coefficient (318.15 K): 69.4 ± 4.8
activity coefficient (328.15 K): 70.2 ± 4.8
activity coefficient (338.15 K): 71.1 ± 4.9
activity coefficient (348.15 K): 71.8 ± 4.9
activity coefficient (358.15 K): 72.6 ± 5

CCCCCO [pentan-1-ol] + N#C[N-]C#N.OCCC[n+]1ccccc1
activity coefficient (318.15 K): 4.98 ± 0.34
activity coefficient (328.15 K): 4.89 ± 0.33
activity coefficient (338.15 K): 4.81 ± 0.33
activity coefficient (348.15 K): 4.74 ± 0.32
activity coefficient (358.15 K): 4.68 ± 0.32
activity coefficient (368.15 K): 4.61 ± 0.31

C=CCCCCCCCC [1-decene] + N#C[N-]C#N.OCCC[n+]1ccccc1
activity coefficient (298.15 K): 1030 ± 71
activity coefficient (308.15 K): 954 ± 66
activity coefficient (318.15 K): 887 ± 61
activity coefficient (328.15 K): 829 ± 57
activity coefficient (338.15 K): 777 ± 54
activity coefficient (348.15 K): 731 ± 50
activity coefficient (358.15 K): 691 ± 48

CCCO [propan-1-ol] + N#C[N-]C#N.OCCC[n+]1ccccc1
activity coefficient (318.15 K): 2.03 ± 0.14
activity coefficient (328.15 K): 2.03 ± 0.14
activity coefficient (338.15 K): 2.02 ± 0.14
activity coefficient (348.15 K): 2.02 ± 0.14
activity coefficient (358.15 K): 2.01 ± 0.14
activity coefficient (368.15 K): 2.01 ± 0.14

Cc1cccc(C)c1 [1,3-dimethylbenzene] + N#C[N-]C#N.OCCC[n+]1ccccc1
activity coefficient (318.15 K): 14.4 ± 1
activity coefficient (328.15 K): 14.8 ± 1
activity coefficient (338.15 K): 15.3 ± 1
activity coefficient (348.15 K): 15.7 ± 1.1
activity coefficient (358.15 K): 16.1 ± 1.1
activity coefficient (368.15 K): 16.5 ± 1.1

O [water] + N#C[N-]C#N.OCCC[n+]1ccccc1
activity coefficient (328.15 K): 0.399 ± 0.034
activity coefficient (338.15 K): 0.411 ± 0.034
activity coefficient (348.15 K): 0.421 ± 0.035
activity coefficient (358.15 K): 0.432 ± 0.035

CCO [ethanol] + N#C[N-]C#N.OCCC[n+]1ccccc1
activity coefficient (318.15 K): 1.3 ± 0.08
activity coefficient (328.15 K): 1.3 ± 0.08
activity coefficient (338.15 K): 1.3 ± 0.08
activity coefficient (348.15 K): 1.31 ± 0.09
activity coefficient (358.15 K): 1.31 ± 0.09
activity coefficient (368.15 K): 1.31 ± 0.09

CCCCCCC [heptane] + N#C[N-]C#N.OCCC[n+]1ccccc1
activity coefficient (298.15 K): 582 ± 40
activity coefficient (308.15 K): 527 ± 36
activity coefficient (318.15 K): 481 ± 33
activity coefficient (328.15 K): 441 ± 30
activity coefficient (338.15 K): 407 ± 28
activity coefficient (348.15 K): 377 ± 26
activity coefficient (358.15 K): 351 ± 24

C=C(C)c1ccccc1 [(1-methylethenyl)benzene] + N#C[N-]C#N.OCCC[n+]1ccccc1
activity coefficient (318.15 K): 11.3 ± 0.8
activity coefficient (328.15 K): 12 ± 0.8
activity coefficient (338.15 K): 12.7 ± 0.9
activity coefficient (348.15 K): 13.3 ± 0.9
activity coefficient (358.15 K): 14 ± 1
activity coefficient (368.15 K): 14.6 ± 1

C#CCCC [1-pentyne] + N#C[N-]C#N.OCCC[n+]1ccccc1
activity coefficient (298.15 K): 11.1 ± 0.8
activity coefficient (308.15 K): 11.6 ± 0.8
activity coefficient (318.15 K): 12.1 ± 0.8
activity coefficient (328.15 K): 12.6 ± 0.9
activity coefficient (338.15 K): 13.1 ± 0.9
activity coefficient (348.15 K): 13.5 ± 0.9
activity coefficient (358.15 K): 14 ± 1

COC(C)(C)C [2-methoxy-2-methylpropane] + N#C[N-]C#N.OCCC[n+]1ccccc1
activity coefficient (318.15 K): 25.1 ± 1.7
activity coefficient (328.15 K): 25.5 ± 1.7
activity coefficient (338.15 K): 25.9 ± 1.8
activity coefficient (348.15 K): 26.2 ± 1.8
activity coefficient (358.15 K): 26.6 ± 1.8
activity coefficient (368.15 K): 26.9 ± 1.8

CCCc1ccccc1 [propylbenzene] + N#C[N-]C#N.OCCC[n+]1ccccc1
activity coefficient (318.15 K): 30.5 ± 2.1
activity coefficient (328.15 K): 30.8 ± 2.1
activity coefficient (338.15 K): 31.1 ± 2.1
activity coefficient (348.15 K): 31.3 ± 2.1
activity coefficient (358.15 K): 31.6 ± 2.2
activity coefficient (368.15 K): 31.8 ± 2.2

CC(C)CO [2-methyl-1-propanol] + N#C[N-]C#N.OCCC[n+]1ccccc1
activity coefficient (318.15 K): 3.31 ± 0.23
activity coefficient (328.15 K): 3.26 ± 0.22
activity coefficient (338.15 K): 3.2 ± 0.22
activity coefficient (348.15 K): 3.15 ± 0.21
activity coefficient (358.15 K): 3.11 ± 0.21
activity coefficient (368.15 K): 3.06 ± 0.21

CCCCCCCCC [nonane] + N#C[N-]C#N.OCCC[n+]1ccccc1
activity coefficient (298.15 K): 1450 ± 100
activity coefficient (308.15 K): 1300 ± 90
activity coefficient (318.15 K): 1180 ± 81
activity coefficient (328.15 K): 1080 ± 74
activity coefficient (338.15 K): 985 ± 68
activity coefficient (348.15 K): 906 ± 62
activity coefficient (358.15 K): 837 ± 58

C1CCCCCC1 [cycloheptane] + N#C[N-]C#N.OCCC[n+]1ccccc1
activity coefficient (298.15 K): 161 ± 11
activity coefficient (308.15 K): 149 ± 10
activity coefficient (318.15 K): 139 ± 10
activity coefficient (328.15 K): 130 ± 9
activity coefficient (338.15 K): 122 ± 8
activity coefficient (348.15 K): 115 ± 8
activity coefficient (358.15 K): 109 ± 7

CCCC(=O)OC [methyl butanoate] + N#C[N-]C#N.OCCC[n+]1ccccc1
activity coefficient (318.15 K): 10.3 ± 0.7
activity coefficient (328.15 K): 10.6 ± 0.7
activity coefficient (338.15 K): 10.9 ± 0.7
activity coefficient (348.15 K): 11.2 ± 0.8
activity coefficient (358.15 K): 11.5 ± 0.8
activity coefficient (368.15 K): 11.7 ± 0.8

CCCC=O [butanal] + N#C[N-]C#N.OCCC[n+]1ccccc1
activity coefficient (318.15 K): 4.09 ± 0.28
activity coefficient (328.15 K): 4.21 ± 0.29
activity coefficient (338.15 K): 4.3 ± 0.29
activity coefficient (348.15 K): 4.39 ± 0.3
activity coefficient (358.15 K): 4.49 ± 0.31
activity coefficient (368.15 K): 4.57 ± 0.31

CCC(C)O (stereo not drawn) [butan-2-ol] + N#C[N-]C#N.OCCC[n+]1ccccc1
activity coefficient (318.15 K): 3.23 ± 0.22
activity coefficient (328.15 K): 3.18 ± 0.22
activity coefficient (338.15 K): 3.13 ± 0.21
activity coefficient (348.15 K): 3.09 ± 0.21
activity coefficient (358.15 K): 3.05 ± 0.21
activity coefficient (368.15 K): 3.02 ± 0.21

CCC(C)(C)OC [2-methoxy-2-methylbutane] + N#C[N-]C#N.OCCC[n+]1ccccc1
activity coefficient (318.15 K): 41.8 ± 2.9
activity coefficient (328.15 K): 42 ± 2.9
activity coefficient (338.15 K): 42.1 ± 2.9
activity coefficient (348.15 K): 42.3 ± 2.9
activity coefficient (358.15 K): 42.5 ± 2.9
activity coefficient (368.15 K): 42.6 ± 2.9

C1COCCO1 [1,4-dioxane] + N#C[N-]C#N.OCCC[n+]1ccccc1
activity coefficient (318.15 K): 1.74 ± 0.12
activity coefficient (328.15 K): 1.86 ± 0.13
activity coefficient (338.15 K): 1.99 ± 0.14
activity coefficient (348.15 K): 2.12 ± 0.14
activity coefficient (358.15 K): 2.25 ± 0.15
activity coefficient (368.15 K): 2.38 ± 0.16

CC(C)CC(C)(C)C [2,2,4-trimethylpentane] + N#C[N-]C#N.OCCC[n+]1ccccc1
activity coefficient (298.15 K): 800 ± 55
activity coefficient (308.15 K): 714 ± 49
activity coefficient (318.15 K): 640 ± 44
activity coefficient (328.15 K): 579 ± 40

c1ccncc1 [pyridine] + N#C[N-]C#N.OCCC[n+]1ccccc1
activity coefficient (318.15 K): 1.39 ± 0.09
activity coefficient (328.15 K): 1.48 ± 0.1
activity coefficient (338.15 K): 1.56 ± 0.1
activity coefficient (348.15 K): 1.64 ± 0.11
activity coefficient (358.15 K): 1.72 ± 0.12
activity coefficient (368.15 K): 1.8 ± 0.12

C#CCCCC [1-hexyne] + N#C[N-]C#N.OCCC[n+]1ccccc1
activity coefficient (298.15 K): 19.8 ± 1.4
activity coefficient (308.15 K): 20.6 ± 1.4
activity coefficient (318.15 K): 21.5 ± 1.5
activity coefficient (328.15 K): 22.5 ± 1.5
activity coefficient (338.15 K): 23.4 ± 1.6
activity coefficient (348.15 K): 24.3 ± 1.7
activity coefficient (358.15 K): 25.2 ± 1.7

CCC[N+](=O)[O-] [1-nitropropane] + N#C[N-]C#N.OCCC[n+]1ccccc1
activity coefficient (318.15 K): 2.96 ± 0.2
activity coefficient (328.15 K): 3.08 ± 0.21
activity coefficient (338.15 K): 3.18 ± 0.22
activity coefficient (348.15 K): 3.28 ± 0.22
activity coefficient (358.15 K): 3.37 ± 0.23
activity coefficient (368.15 K): 3.47 ± 0.24

Reference: the NIST ThermoML archive (doi:10.1016/j.jct.2017.03.004)
